From ChEMBL document CHEMBL1275428, “First case of emergence of atovaquone-proguanil resistance in Plasmodium falciparum during treatment in a traveler in Comoros” (Antimicrob Agents Chemother, 2008)

Legend:
Plasmodium falciparum [1] = assay: microbe, parasite or virus in culture
Description: Antiplasmodial activity against Plasmodium falciparum harboring K1 allele group of msp1, 3D7 allele group of msp2 gene and 94 bp of 7A11, 196bp of C4M79 and 336bp of C4M69 locus measured on day 23 by [3H]hypoxanthine incorporation assay

Plasmodium falciparum [2] = format: functional, organism-based; conditions: 552 h

For `CCNCc1cc(Nc2ccnc3cc(Cl)ccc23)ccc1O` [DESETHYL AMODIAQUINE], the IC50 (Plasmodium falciparum [1]) was 0.0305 µM.

`CC1(C)N=C(N)N=C(N)N1c1ccc(Cl)cc1` [CYCLOGUANIL] was tested, and the IC50 (Plasmodium falciparum [1]) was 0.25 µM.

`CCCCN(CCCC)CC(O)c1cc(Cl)cc2c1-c1ccc(Cl)cc1/C2=C/c1ccc(Cl)cc1` (stereo unspecified) [LUMEFANTRINE] showed an IC50 (Plasmodium falciparum [1]) of 0.0152 µM.

With `OC(c1cc(C(F)(F)F)nc2c(C(F)(F)F)cccc12)C1CCCCN1` (stereo unspecified) [MEFLOQUINE] the IC50 (Plasmodium falciparum [1]) was 0.0341 µM.

Compound `O=C1C(O)=C([C@H]2CC[C@H](c3ccc(Cl)cc3)CC2)C(=O)c2ccccc21` [ATOVAQUONE] has an IC50 (Plasmodium falciparum [2]) of 0.39 µM.

`CCc1nc(N)nc(N)c1-c1ccc(Cl)cc1` [PYRIMETHAMINE] showed an IC50 (Plasmodium falciparum [1]) of 2.51 µM.
